This is an account of results in US20170334899A1, “AMINO-SUBSTITUTED ISOTHIAZOLES” (Bayer Pharma Aktiengesellschaft, priority 2014, published 2017).

Structures are written as SMILES.

In the experiment the target is T1, human kinase Mps-1 (Homo sapiens, UniProt P33981).
T1 construct: N-terminally GST-tagged human full length recombinant Mps-1 kinase; GST (N); purchased Invitrogen, Karslruhe, Germany PV4071
T1 sequence (P33981 1-857): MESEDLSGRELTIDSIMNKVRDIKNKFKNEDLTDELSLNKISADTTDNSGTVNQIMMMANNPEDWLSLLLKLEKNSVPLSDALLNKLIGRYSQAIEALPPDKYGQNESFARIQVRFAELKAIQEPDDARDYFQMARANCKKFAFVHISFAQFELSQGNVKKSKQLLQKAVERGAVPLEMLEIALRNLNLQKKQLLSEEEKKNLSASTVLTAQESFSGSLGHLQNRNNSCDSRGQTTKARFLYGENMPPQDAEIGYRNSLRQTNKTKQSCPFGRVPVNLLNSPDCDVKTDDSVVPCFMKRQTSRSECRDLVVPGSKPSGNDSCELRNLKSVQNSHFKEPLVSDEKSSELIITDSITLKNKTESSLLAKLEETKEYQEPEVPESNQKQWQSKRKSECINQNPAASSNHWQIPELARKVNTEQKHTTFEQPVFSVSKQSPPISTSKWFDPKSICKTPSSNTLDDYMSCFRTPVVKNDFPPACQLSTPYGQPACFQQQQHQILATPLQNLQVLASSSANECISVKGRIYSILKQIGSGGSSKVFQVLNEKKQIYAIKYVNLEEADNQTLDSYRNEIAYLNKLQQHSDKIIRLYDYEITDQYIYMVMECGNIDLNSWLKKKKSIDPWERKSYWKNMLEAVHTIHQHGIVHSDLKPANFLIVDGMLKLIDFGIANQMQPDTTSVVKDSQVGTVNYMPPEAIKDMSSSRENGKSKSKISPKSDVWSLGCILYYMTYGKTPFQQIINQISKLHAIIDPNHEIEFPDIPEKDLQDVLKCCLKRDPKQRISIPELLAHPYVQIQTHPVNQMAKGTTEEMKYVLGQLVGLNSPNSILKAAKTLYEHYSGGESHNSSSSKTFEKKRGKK
As to the kind of experiment: Mps-1 kinase assay (TR-FRET). The experiment is classed as biochemical. As to conditions: Mps-1 TR-FRET kinase assay; avg; read-out: Mps1 avg (IC50 [mol/l]). The essentials:
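GST-tagged full-length recombinant human Mps-1 (~0.5 nM) pre-incubated 15 min with compound, then reacted 60 min at 22 °C with 10 μM ATP and 1 μM biotinylated peptide in Hepes pH 7.7 buffer. EDTA-stopped; TR-FRET (Eu anti-phospho-Ser/Thr to SA-XLent) 665/620 nm ratio normalised to no-inhibitor and no-enzyme controls.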
Background: Time-resolved FRET reads energy transfer from a long-lived donor to a nearby acceptor.
`COCCOc1ccc(NC(=O)c2c(C)nsc2Nc2nc3c(C(F)(F)F)cccc3s2)cc1F` [Example 1, N-[3-Fluoro-4-(2-methoxyethoxy)phenyl]-3-methyl-5-{[4-(trifluoromethyl)-1,3-benzothiazol-2-yl]amino}-1,2-thiazole-4-carboxamide]: the IC50 was ≥ 20 µM. On to `Cc1nsc(Nc2nc3c(C(F)(F)F)cccc3s2)c1C(=O)Nc1ccc(OCCO)nc1` [Example 2, N-[6-(2-Hydroxyethoxy)pyridin-3-yl]-3-methyl-5-{[4-(trifluoromethyl)-1,3-benzo-thiazol-2-yl]amino}-1,2-thiazole-4-carboxamide], for which the IC50 is ≥ 20 µM.

Regarding `COCCOc1ccc(NC(=O)c2c(C)nsc2Nc2nc3c(C(F)(F)F)cccc3s2)cn1` [Example 3, N-[6-(2-Methoxyethoxy)pyridin-3-yl]-3-methyl-5-{[4-(trifluoromethyl)-1,3-benzo-thiazol-2-yl]amino}-1,2-thiazole-4-carboxamide], the IC50 was ≥ 20 µM.

In the case of `Cc1nsc(Nc2nc3c(C(F)(F)F)cccc3s2)c1C(=O)Nc1ccc(OCCO)c(F)c1` [Example 4, N-[3-Fluoro-4-(2-hydroxyethoxy)phenyl]-3-methyl-5-{[4-(trifluoromethyl)-1,3-benzothiazol-2-yl]amino}-1,2-thiazole-4-carboxamide], the IC50 was ≥ 20 µM. For `Cc1nsc(Nc2cnc(C(F)(F)F)cn2)c1C(=O)Nc1ccc(OC2CCN(C(=O)OC(C)(C)C)CC2)nc1` [Example 5, tert-Butyl 4-[(5-{[(3-methyl-5-{[5-(trifluoromethyl)pyrazin-2-yl]amino}-1,2-thiazol-4-yl)carbonyl]amino}pyridin-2-yl)oxy]piperidine-1-carboxylate], the IC50 was ≥ 20 µM. As for `Cc1nsc(Nc2cc(C#N)ccn2)c1C(=O)Nc1ccc(OC2CCCNC2)nc1` (centres unmarked) [Example 35, 5-[(4-Cyanopyridin-2-yl)amino]-3-methyl-N-[6-(piperidin-3-yloxy)pyridin-3-yl]-1,2-thiazole-4-carboxamide], the IC50 was ≥ 20 µM. With `Cc1nsc(Nc2ccc(C#N)cn2)c1C(=O)Nc1ccc(OC2CCCN(C(=O)OC(C)(C)C)C2)nc1` (centres unmarked) [Example 36, tert-Butyl 3-({5-[({5-[(5-cyanopyridin-2-yl)amino]-3-methyl-1,2-thiazol-4-yl}-carbonyl)amino]pyridin-2-yl}oxy)piperidine-1-carboxylate], the IC50 is ≥ 20 µM. Turning to `Cc1nsc(Nc2ccc(C#N)cn2)c1C(=O)Nc1ccc(OC2CCCNC2)nc1` (centres unmarked) [Example 37, 5-[(5-Cyanopyridin-2-yl)amino]-3-methyl-N-[6-(piperidin-3-yloxy)pyridin-3-yl]-1,2-thiazole-4-carboxamide], the IC50 is ≥ 20 µM. As for `Cc1nsc(Nc2ccc(C#N)cn2)c1C(=O)Nc1ccc(OC2CCCN(CCF)C2)nc1` (centres unmarked) [Example 38, 5-[(5-Cyanopyridin-2-yl)amino]-N-(6-{[1-(2-fluoroethyl)piperidin-3-yl]oxy}pyridin-3-yl)-3-methyl-1,2-thiazole-4-carboxamide], the IC50 is ≥ 20 µM. On to `Cc1nsc(Nc2ccc(C#N)cn2)c1C(=O)Nc1ccc(OC2CCCN(CC(F)F)C2)nc1` (centres unmarked) [Example 39, 5-[(5-Cyanopyridin-2-yl)amino]-N-(6-{[1-(2,2-difluoroethyl)piperidin-3-yl]oxy}-pyridin-3-yl)-3-methyl-1,2-thiazole-4-carboxamide], for which the IC50 was ≥ 20 µM.

As to `Cc1nsc(Nc2ccc(C#N)cn2)c1C(=O)Nc1ccc(OC2CCCN(CC(F)(F)F)C2)nc1` (centres unmarked) [Example 40, 5-[(5-Cyanopyridin-2-yl)amino]-3-methyl-N-(6-{[1-(2,2,2-trifluoroethyl)piperidin-3-yl]oxy}pyridin-3-yl)-1,2-thiazole-4-carboxamide], the IC50 was ≥ 20 µM. To `Cc1nsc(Nc2cnccn2)c1C(=O)Nc1ccc(OC2CCCN(C(=O)OC(C)(C)C)C2)nc1` (centres unmarked) [Example 41, tert-Butyl 3-{[5-({[3-methyl-5-(pyrazin-2-ylamino)-1,2-thiazol-4-yl]carbonyl}amino)-pyridin-2-yl]oxy}piperidine-1-carboxylate] belongs ≥ 20 µM; to `Cc1nsc(Nc2cnc3ccccc3n2)c1C(=O)Nc1ccc(OCCCNC(=O)OC(C)(C)C)nc1` [Example 42, tert-Butyl (3-{[5-({[3-methyl-5-(quinoxalin-2-ylamino)-1,2-thiazol-4-yl]carbonyl}-amino)pyridin-2-yl]oxy}propyl)carbamate], ≥ 20 µM.

Turning to `Cc1nsc(Nc2cc(C#N)ccn2)c1C(=O)Nc1ccc(OCCCNC(=O)OC(C)(C)C)nc1` [Example 43, tert-Butyl [3-({5-[({5-[(4-cyanopyridin-2-yl)amino]-3-methyl-1,2-thiazol-4-yl}-carbonyl)amino]pyridin-2-yl}oxy)propyl]carbamate], the IC50 was ≥ 20 µM. Regarding `Cc1nsc(Nc2cc(C#N)ccn2)c1C(=O)Nc1ccc(OCCCN)nc1` [Example 44, N-[6-(3-Aminopropoxy)pyridin-3-yl]-5-[(4-cyanopyridin-2-yl)amino]-3-methyl-1,2-thiazole-4-carboxamide], the IC50 is ≥ 20 µM. Under `Cc1nsc(Nc2cc(C#N)ccn2)c1C(=O)Nc1ccc(OCCCNCC(F)F)nc1` [Example 45, 5-[(4-Cyanopyridin-2-yl)amino]-N-(6-{3-[(2,2-difluoroethyl)amino]propoxy}pyridin-3-yl)-3-methyl-1,2-thiazole-4-carboxamide] stands ≥ 20 µM. Take `Cc1nsc(Nc2ccc(C#N)cn2)c1C(=O)Nc1ccc(OCCCNC(=O)OC(C)(C)C)nc1` [Example 46, tert-Butyl [3-({5-[({5-[(5-cyanopyridin-2-yl)amino]-3-methyl-1,2-thiazol-4-yl}-carbonyl)amino]pyridin-2-yl}oxy)propyl]carbamate]: the IC50 is ≥ 20 µM. With `Cc1nsc(Nc2cnccn2)c1C(=O)Nc1ccc(OCCCNC(=O)OC(C)(C)C)nc1` [Example 47, tert-Butyl (3-{[5-({[3-methyl-5-(pyrazin-2-ylamino)-1,2-thiazol-4-yl]carbonyl}-amino)pyridin-2-yl]oxy}propyl)carbamate], the IC50 is ≥ 20 µM. Turning to `Cc1nsc(Nc2cnccn2)c1C(=O)Nc1ccc(OCCCN)nc1` [Example 48, N-[6-(3-Aminopropoxy)pyridin-3-yl]-3-methyl-5-(pyrazin-2-ylamino)-1,2-thiazole-4-carboxamide], the IC50 was ≥ 20 µM. To `Cc1nsc(Nc2cnc3ccccc3n2)c1C(=O)Nc1cccc(C(=O)OC(C)(C)C)c1` [Example 49, tert-Butyl 3-({[3-methyl-5-(quinoxalin-2-ylamino)-1,2-thiazol-4-yl]carbonyl}amino)-benzoate] belongs ≥ 20 µM; to `COC(=O)c1cccc(NC(=O)c2c(C)nsc2Nc2cnc3ccccc3n2)c1` [Example 50, Methyl 3-({[3-methyl-5-(quinoxalin-2-ylamino)-1,2-thiazol-4-yl]carbonyl}amino)-benzoate], 2.5 µM.

In the case of `Cc1nsc(Nc2cnc3ccccc3n2)c1C(=O)Nc1cccc(C(=O)N2CCOCC2)c1` [Example 52, 3-Methyl-N-[3-(morpholin-4-ylcarbonyl)phenyl]-5-(quinoxalin-2-ylamino)-1,2-thiazole-4-carboxamide], the IC50 was found to be 18 µM. On to `Cc1nsc(Nc2cnc3ccccc3n2)c1C(=O)Nc1cccc(C(=O)NC(C)(C)C)c1` [Example 53, N-[3-(tert-Butylcarbamoyl)-phenyl]-3-methyl-5-(quinoxalin-2-ylamino)-1,2-thiazole-4-carboxamide], for which the IC50 was ≥ 20 µM. Consider `Cc1nsc(Nc2cnc3ccccc3n2)c1C(=O)Nc1cccc(C(=O)N2CCN(C(=O)OC(C)(C)C)CC2)c1` [Example 55, tert-Butyl 4-[3-({[3-methyl-5-(quinoxalin-2-ylamino)-1,2-thiazol-4-yl]carbonyl}amino)-benzoyl]piperazine-1-carboxylate], for which the IC50 was ≥ 20 µM. On to `Cc1nsc(Nc2cnc3ccccc3n2)c1C(=O)Nc1cccc(C(=O)N[C@H](C(=O)OC(C)(C)C)[C@@H](C)OC(C)(C)C)c1` [Example 57, tert-Butyl O-tert-butyl-N-[3-({[3-methyl-5-(quinoxalin-2-ylamino)-1,2-thiazol-4 yl]carbonyl}amino)-benzoyl]threoninate], for which the IC50 is ≥ 20 µM. As to `Cc1nsc(Nc2cnc(C(F)(F)F)cn2)c1C(=O)Nc1ccc(F)c(OCC2CCN(CC(F)(F)F)C2)c1` (centres unmarked) [Example 318, N-(4-fluoro-3-{[1-(2,2,2-trifluoroethyl)pyrrolidin-3-yl]methoxy}phenyl)-3-methyl-5-{[5-(trifluoromethyl)pyrazin-2-yl]amino}-1,2-thiazole-4-carboxamide], the IC50 was > 20 µM.
